Source: PMC2678990, “Stilbene glycosides are natural product inhibitors of FGF-2-induced angiogenesis” (BMC Cell Biology, 2009)

Tests used:
human umbilical vein ECs = tested on: human umbilical vein ECs; design: method as in PMID 11092574; conditions: cited from earlier work
BAEC [1] = test: FGF-2 invasion in Matrigel; type: cell-based, bovine; conditions: FGF-2 treated
Description: The effect of the test compounds on cell invasion was investigated using a Transwell Boyden chamber system coated with reconstituted growth factor-depleted Matrigel. […] Representative photomicrographs for the effect of compound 1 are shown (Figure 7B).
Figure 7 The effect of compounds 1 (AI) and 2 (AII) on BAEC invasion into a Matrigel layer was studied using the chemoinvasion assay described below. Cells (1.7 × 10^4) were added to the Matrigel coated upper Boyden chamber and the compounds with or without FGF-2 added to the lower chamber. Cell invasion was measured after 24 h and assessed as described below. […] Results are the mean of three experiments. (B) Representative photomicrographs are shown for the effect of compound 1 on BAEC (original magnification × 20).
The procedure described above was repeated and wells having a uniform network of tubes were used to assess invasion into a second layer of Matrigel. Matrigel (100 μl), with and without the test compounds was added to the cells and allowed to polymerise (1 h at 37°C). FCS (15%) was added and the cells incubated for 24–72 h when tube growth into the upper layer was measured as described above.

HDMEC [2] = test: FGF-2 invasion in Matrigel; type: cell-based, human; conditions: FGF-2 treated
BAEC [3] = test: FGF-2-induced tube formation in Matrigel; type: cell-based, bovine; conditions: FGF-2 25 ng/ml
Description: (§1) Cells (1.0 × 10^6/ml) were mixed with an equal volume of Matrigel (Becton -Dickinson, Oxford, UK; prepared according to the supplier's instructions) at 4°C. Aliquots (80 μl) were added to the wells of a 48-well plate and allowed to polymerise (1 h) then 500 μl of 15% FCS containing FGF-2 (25 ng/ml; or other growth factors), with or without test compounds was added. The cells were incubated for 24 h at 37°C then fixed in 4% paraformaldehyde (5 min), washed in cold ethanol and the plate air dried. Cells were stained with Geimsa (30 s), air dried and photographed. Ten random fields were selected and the number of closed tubes counted.

phospho-ERK1/2 in BAEC = test: Western blot of ERK1/2 phosphorylation; type: cell-based, bovine; conditions: FGF-2 addition
Description: Figure 9 (A) Western blots of p-ERK-1 and -2 were performed on BAEC treated with compound 1 as described below. (B) The bar charts show relative protein expression compared to the control given an arbitrary value of 1.0. All experiments were performed at least twice and a representative example is shown. Lane 1 control, lane 2 FGF-2 (25 ng/ml), lane 3 compound 1 ([…]), lane 4 compound 1 (14.3 μM) + FGF-2, lane 5 compound 1 (28.6 μM), lane 6 compound 1 (28.6 μM) + FGF-2.
The method is described in detail elsewhere. In brief, cells were lysed in RIPA buffer, protein concentration determined using the Biorad assay, and approximately 20 μg aliquots separated by 12% SDS-PAGE, electroblotted onto nitrocellulose filters (Hoefer, San Francisco, Ca, USA), blocked overnight with 1% BSA in TBS-Tween and incubated for 4 h at RT with characterised antibodies to phosphor-ERK1/2 (AutogenBioclear, mouse monoclonal, 1:1000). α-Actin (Sigma, UK; 1:1000) was used as a loading control. Filters were washed in TBS-Tween and stained with antibodies to peroxidase-conjugated secondary antibody. Proteins were detected with the ECL system (Amersham, UK). Protein expression was estimated spectrophotometrically from band intensity. Results are semi-quantitative and given a numerical value compared to the weakest observed band assigned an arbitrary value of 1.0. […]

HDMEC [4] = test: FGF-2-induced tube formation in Matrigel; type: cell-based, human; conditions: FGF-2 25 ng/ml
Description: as §1

[5] = tested on: chick chorioallantoic membrane; test: Chick chorioallantoic membrane (CAM) assay; type: in vivo; conditions: FGF-2 (25 ng) alone
Description: The angiogenic activity of test compounds was determined using the semi-quantitative chick chorioallantoic assay (CAM) as described previously. To expose the CAM a window was created in the shells of 4 day-old chicken eggs. […] […] This approach enabled calculation of an accumulated response in each group. To photograph the membrane, 2 cm^3 of a 50% emulsion of aqueous paraffin oil containing 2% Tween-80 was injected at the site of application and photographed using a Leitz dissecting microscope. Each experiment was performed five times and statistical significance was determined by the Mann-Whitney U test and the data is expressed as a median value (m).

BAEC [6] = test: Toxicity: MTT and active caspase-3 assays; type: cell-based, bovine; conditions: MTT 72 h and active caspase-3 24 h, staurosporine 1.0-1.4 μM positive control
Description: Figure 2 The effect of compounds 1 and 2 on BAEC viability. The cytotoxic effect was determined using (A) The MTT assay; cells (7.5 × 10^3) were incubated with the test compounds or with staurosporine (1.4 μM) an inducer of active caspase-3 and of apoptosis for 72 h and MTT added. The absorbance was read at 570 nm. (B) Active-caspase-3 apoptosis assay: cells (4.0 × 10^4/ml) were incubated with the test compounds or with staurosporine (1.0 μM, 24 h) and stained with anti-active caspase-3 as described below. Experiments were performed in triplicate. Representative immunofluorescence photomicrographs for BAEC were taken as described below. A group of apoptotic cells are highlighted in II.
Stilbene glycoside toxicity was determined using the MTT and active caspase-3 assays. BAECs or HDMECs (7.5 × 10^3) were seeded in a 96 well plate and incubated for 4 h to allow cell adhesion. The test compound or staurosporine (1 μM), an inducer of active caspase-3 and therefore of apoptosis was added to the wells. Control cells were treated with PBS and the plate was incubated at room temperature for 72 hours. MTT reagent (10 μl) was added followed by incubation at room temperature for 2–4 h. When a purple precipitate was visible, detergent reagent (100 μl) was added to the plates and incubated at room temperature for 2 h in the dark. Absorbance was measured at 570 nm using a microplate reader. […]

HDMEC [7] = test: Toxicity: MTT and active caspase-3 assays; type: cell-based, human; conditions: HDMEC; MTT 72 h and active caspase-3 24 h; staurosporine positive control
Description: Stilbene glycoside toxicity was determined using the MTT and active caspase-3 assays. BAECs or HDMECs (7.5 × 10^3) were seeded in a 96 well plate and incubated for 4 h to allow cell adhesion. The test compound or staurosporine (1 μM), an inducer of active caspase-3 and therefore of apoptosis was added to the wells. Control cells were treated with PBS and the plate was incubated at room temperature for 72 hours. MTT reagent (10 μl) was added followed by incubation at room temperature for 2–4 h. When a purple precipitate was visible, detergent reagent (100 μl) was added to the plates and incubated at room temperature for 2 h in the dark. Absorbance was measured at 570 nm using a microplate reader.
In the apoptosis assay, HDMECs or BAEC (4 × 10^4/ml) in complete medium were added to the chambers slide and allowed to adhere for 24 h. The test compound (X μM) or staurosporine (1 μM) were added to all wells except control (PBS) and incubated for 24 hours. Wells treated with staurosporine were immediately washed (PBS) and fixed (4% paraformaldehyde) when cell morphology became round (2–4 h). After washing and fixing, cells were permeablized (0.1% Triton X-100; 10 min), washed (× 5~5 min each), air dried and blocked with 1% BSA in 1:50 TBS-Tween for 1 h at room temperature. Cells were incubated with goat anti-active caspase-3 (R&D system, UK; 1% BSA in TBS-Tween) for 1 h. […]

Q: Which “Concentrations inhibiting differentiation into capillary-like structures” value (human umbilical vein ECs) does the source give for `Oc1ccc(/C=C/c2cc(O)cc(O)c2)cc1` [resveratrol] here?
A: Its value is 0.1 to 1 mM.

Q: What does the source list for “FGF-2: fibroblast growth factor-2, pro-angiogenic growth factor used as stimulus”?
A: Increase in migration into a second layer of Matrigel (BAEC [1]): 3.2 fold; Increase in migration into a second layer of Matrigel (HDMEC [2]): 3.0 fold; Increase in differentiation into capillary-like structures (BAEC [3]): approximately 4.0 fold; Increase in ERK1/2 phosphorylation compared to the control (phospho-ERK1/2 in BAEC): 50%; Increase in differentiation into capillary-like structures (HDMEC [4]): approximately 4.0 fold; Degree of angiogenesis (m), median score [5]: 3

Q: Which Cytotoxic effect (BAEC [6]) does the source give for `CN[C@@H]1C[C@H]2O[C@@](C)([C@@H]1OC)n1c3ccccc3c3c4c(c5c6ccccc6n2c5c31)C(=O)NC4` [staurosporine, reference compound] here?
A: The Cytotoxic effect was “significant cytotoxicity”.

Q: What about the Cytotoxic effect (HDMEC [7]) of the same molecule?
A: Its Cytotoxic effect is “significant cytotoxicity”.
